US20220017566A1, “TERPINOID DERIVATIVES AND USES THEREOF” (SICHUAN HAISCO PHARMACEUTICAL CO., LTD., priority 2018, published 2022)
Where two headings read alike, the source gives them in different places.

Columns and labels:
[1] = tested on: IFNγ-induced NO production in Raw 264.7 cells; test: Nitric oxide assay: suppression of IFNγ-induced NO production (Griess nitrite, adjusted to live cell numbers); format: cell-based; settings: Mus musculus, RAW264.7, 2 h pretreatment, IFNγ 10 ng/ml for 24 hours
Method: Raw 264.7 cells were seeded in 96-well plates at a density of 30, 000 cells per well in DMEM+10% FBS and incubated overnight. The next day, cell media was replaced by DMEM+2% FBS. Cells were pretreated with DMSO or test compounds (top dose 100 nM, 1:4 serial dilution, 10-point) for 2 hours and then treated with recombinant mouse IFNγ (R&D, Cat# 485-MI-100) at a final concentration of 10 ng/ml for 24 hours. Nitrite levels were measured in culture media as a surrogate for nitric oxide using the Griess Reagent System (Promega, Cat# G2930). Cell viability was determined using CellTiter Glo reagents (Promega, Cat#G7572). The nitrite levels were adjusted to live cell numbers and inhibition percentage was calculated. The inhibition percentage was then plotted against compound concentration, and IC50 values were calculated using four-parameter algorithm in Graphpad Prism.

[2] = Metabolic stability in monkey liver microsomes; format: in vitro ADME, cynomolgus monkey
Method: (§1) The metabolic stability of test compounds was examined in CD-1 mouse, Sprague Dawley rat, Beagle dog, cynomolgus monkey, and human liver microsomes. Test compound (final concentration 1 μM) was mixed with diluted liver microsomes from each of the 5 species and a small aliquot was taken at 0, 5, 10, 20, 30, and 60 minutes for LC/MS/MS analysis. Intrinsic clearance and half-life were calculated.

[3] = Metabolic stability in dog liver microsomes; format: in vitro ADME; settings: Beagle
Method: as §1

[4] = tested on: NQO1; test: NQO1 activity assay in Raw264.7 cell lysates; format: cell-based; settings: Mus musculus; Raw264.7 cells, 48 hours treatment
Method: Raw264.7 cells were seeded in DMEM+10% FBS in 96-well plates at a density of 10,000 cells per well. 6 hours after plating, cells were treated with DMSO or test compounds (top dose 100 nM, 1:4 serial dilution, 8-point) for 48 hours. NQO1 activity was then detected in cell lysates using NQO1 activity assay kit (Abeam, Cat#ab184867). NQO1 activity was then plotted against compound concentration, and EC50 values were calculated using four-parameter algorithm in Graphpad Prism.

[5] = Metabolic stability in rat liver microsomes; format: in vitro ADME; settings: Sprague Dawley
Method: as §1

[6] = Metabolic stability in human liver microsomes; format: in vitro ADME
Method: as §1

[7] = Pharmacokinetic studies in Sprague Dawley rats (oral gavage and IV); format: in vivo; settings: rat, male SD rats, plasma; for AUC(0-t): read-out: AUC0-24 h; for bioavailability: oral 5 mg/kg vs IV 1 mg/kg, read-out: Bioavailibility F %
Method: The pharmacokinetics of test compounds was evaluated in male SD rats when administered via oral gavage and IV injection. For oral dosing, compound was formulated in 0.5% methylcellulose and administered at doses of 5 mg/kg (3 rats per dose level) and volume of 10 mL/kg. For IV dosing, compound was formulated in 5% DMSO/5% Solutol/90% saline and administered to 3 rats at a dose of 1 mg/kg and a volume of 5 mL/kg. The rats were fasted overnight before administration. Plasma samples were collected predose and at 0.5, 1, 3, 6, 9, 12, and 24 hours postdose. The samples were analyzed by LC/MS/MS and the concentration of test compound at each timepoint was determined by linear regression. Pharmacokinetic parameters were calculated from the plasma concentrations using Pheonix WinNonlin.

[8] = Metabolic stability in mouse liver microsomes; format: in vitro ADME, CD-1 mouse; settings: CD-1
Method: as §1

[9] = molecular target: T1, CYP3A4 (Homo sapiens, UniProt P08684); test: CYP450 enzyme inhibition in liver microsomes (cocktail probe incubation); format: in vitro ADME; settings: species not given, 0.05-50 μM tested
T1 construct: studied in liver microsomes of CD-1 mouse, Sprague Dawley rat, Beagle dog, cynomolgus monkey, and human; from tissue; host or cells: liver microsomes
Method: (§2) The inhibition potential of test compounds towards major drug metabolizing CYP450 enzymes was studied in liver microsomes of CD-1 mouse, Sprague Dawley rat, Beagle dog, cynomolgus monkey, and human. The inhibition of CYP1A2, CYP2C9, CYP2C19, CYP2D6, and CYP3A4 was assessed using CYP450 specific probe reactions in a cocktail incubation. Seven concentrations of test compounds (0.05, 0.15, 0.5, 1.5, 5, 15, and 50 μM) were evaluated. In addition, known inhibitors for each probe reaction were included as positive controls and incubated at a single concentration above their respective IC50.

[10] = molecular target: T2, CYP2C19 (Homo sapiens, UniProt P33261); test: as above; format: in vitro ADME; settings: species not given, 0.05-50 μM tested
T2 construct: studied in liver microsomes of CD-1 mouse, Sprague Dawley rat, Beagle dog, cynomolgus monkey, and human; from tissue; host or cells: liver microsomes
Method: as §2

[11] = molecular target: T3, CYP2D6 (Homo sapiens, UniProt P10635); test: as above; format: in vitro ADME; settings: species not given, 0.05-50 μM tested
T3 construct: studied in liver microsomes of CD-1 mouse, Sprague Dawley rat, Beagle dog, cynomolgus monkey, and human; from tissue; host or cells: liver microsomes
Method: as §2

[12] = molecular target: T4, CYP1A2 (Homo sapiens, UniProt P05177); test: as above; format: in vitro ADME; settings: species not given, 0.05-50 μM tested
T4 construct: studied in liver microsomes of CD-1 mouse, Sprague Dawley rat, Beagle dog, cynomolgus monkey, and human; from tissue; host or cells: liver microsomes
T4 sequence (P05177 1-516): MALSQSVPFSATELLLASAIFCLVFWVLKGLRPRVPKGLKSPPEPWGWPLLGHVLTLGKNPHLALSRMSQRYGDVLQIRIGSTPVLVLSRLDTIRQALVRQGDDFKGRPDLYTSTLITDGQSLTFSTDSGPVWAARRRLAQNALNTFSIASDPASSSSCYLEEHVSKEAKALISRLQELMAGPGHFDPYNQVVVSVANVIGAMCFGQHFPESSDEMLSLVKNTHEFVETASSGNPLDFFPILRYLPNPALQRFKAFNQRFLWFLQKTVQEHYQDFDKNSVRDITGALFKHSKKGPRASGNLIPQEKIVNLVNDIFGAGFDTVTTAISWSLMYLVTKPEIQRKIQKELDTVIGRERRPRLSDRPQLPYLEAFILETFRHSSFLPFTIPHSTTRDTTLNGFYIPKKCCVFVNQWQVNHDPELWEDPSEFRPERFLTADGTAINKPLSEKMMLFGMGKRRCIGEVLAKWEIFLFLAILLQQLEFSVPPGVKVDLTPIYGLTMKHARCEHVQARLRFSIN
Method: as §2

[13] = molecular target: T5, CYP2C9 (Homo sapiens, UniProt P11712); test: as above; format: in vitro ADME; settings: species not given, 0.05-50 μM tested
T5 construct: studied in liver microsomes of CD-1 mouse, Sprague Dawley rat, Beagle dog, cynomolgus monkey, and human; from tissue; host or cells: liver microsomes
Method: as §2

T5 sequence (P11712 whole entry): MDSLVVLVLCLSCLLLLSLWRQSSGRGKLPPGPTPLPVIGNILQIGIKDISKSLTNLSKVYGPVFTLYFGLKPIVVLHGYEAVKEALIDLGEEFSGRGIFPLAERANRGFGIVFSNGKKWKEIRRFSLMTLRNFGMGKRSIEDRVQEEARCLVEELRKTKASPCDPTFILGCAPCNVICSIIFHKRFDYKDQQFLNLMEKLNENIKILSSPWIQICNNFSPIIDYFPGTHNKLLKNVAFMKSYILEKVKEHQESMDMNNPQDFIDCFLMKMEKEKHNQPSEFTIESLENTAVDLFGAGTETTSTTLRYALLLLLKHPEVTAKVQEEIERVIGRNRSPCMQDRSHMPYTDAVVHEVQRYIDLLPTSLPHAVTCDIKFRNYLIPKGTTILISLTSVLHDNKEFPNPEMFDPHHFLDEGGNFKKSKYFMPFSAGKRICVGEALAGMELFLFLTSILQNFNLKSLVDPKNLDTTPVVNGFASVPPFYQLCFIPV
T1 sequence (P08684 whole entry): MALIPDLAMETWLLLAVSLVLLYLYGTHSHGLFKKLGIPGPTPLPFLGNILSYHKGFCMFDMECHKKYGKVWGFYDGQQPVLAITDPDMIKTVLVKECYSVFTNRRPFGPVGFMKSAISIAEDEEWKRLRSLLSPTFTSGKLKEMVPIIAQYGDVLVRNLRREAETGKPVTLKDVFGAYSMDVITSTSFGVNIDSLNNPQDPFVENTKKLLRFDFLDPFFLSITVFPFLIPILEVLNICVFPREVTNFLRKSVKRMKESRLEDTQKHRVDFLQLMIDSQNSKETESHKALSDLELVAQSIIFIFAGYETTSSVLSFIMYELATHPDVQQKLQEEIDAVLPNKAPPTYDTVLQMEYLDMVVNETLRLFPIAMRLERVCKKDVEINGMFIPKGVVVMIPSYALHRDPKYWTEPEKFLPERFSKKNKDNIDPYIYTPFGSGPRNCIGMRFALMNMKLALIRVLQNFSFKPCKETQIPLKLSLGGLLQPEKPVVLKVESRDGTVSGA
T2 sequence (P33261 whole entry): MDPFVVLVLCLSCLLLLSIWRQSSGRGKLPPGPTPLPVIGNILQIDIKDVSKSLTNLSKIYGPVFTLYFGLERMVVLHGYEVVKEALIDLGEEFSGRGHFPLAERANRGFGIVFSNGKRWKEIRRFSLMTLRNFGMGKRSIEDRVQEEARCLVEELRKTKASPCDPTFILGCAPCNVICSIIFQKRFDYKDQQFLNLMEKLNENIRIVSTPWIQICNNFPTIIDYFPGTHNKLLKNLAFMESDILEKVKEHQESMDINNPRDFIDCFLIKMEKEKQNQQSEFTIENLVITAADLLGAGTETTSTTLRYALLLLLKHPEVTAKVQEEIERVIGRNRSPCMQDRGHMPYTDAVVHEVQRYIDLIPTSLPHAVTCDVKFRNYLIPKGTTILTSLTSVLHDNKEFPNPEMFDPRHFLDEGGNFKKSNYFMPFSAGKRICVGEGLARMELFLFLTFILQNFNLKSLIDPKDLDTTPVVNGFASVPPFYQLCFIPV
T3 sequence (P10635 whole entry): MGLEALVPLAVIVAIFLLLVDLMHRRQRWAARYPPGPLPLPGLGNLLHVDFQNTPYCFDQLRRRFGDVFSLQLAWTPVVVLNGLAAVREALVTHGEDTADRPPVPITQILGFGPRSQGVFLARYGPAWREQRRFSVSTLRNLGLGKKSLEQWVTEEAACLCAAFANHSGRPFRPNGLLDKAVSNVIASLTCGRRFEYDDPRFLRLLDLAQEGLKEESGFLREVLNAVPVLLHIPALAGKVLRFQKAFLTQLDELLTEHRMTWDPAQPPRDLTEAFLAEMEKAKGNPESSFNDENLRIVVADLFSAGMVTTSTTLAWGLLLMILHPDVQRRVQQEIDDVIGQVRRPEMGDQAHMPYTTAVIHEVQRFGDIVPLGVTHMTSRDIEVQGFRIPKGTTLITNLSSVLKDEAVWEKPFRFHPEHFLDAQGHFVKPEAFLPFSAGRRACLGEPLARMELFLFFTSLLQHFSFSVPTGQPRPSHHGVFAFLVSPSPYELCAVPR

| IC50 [1] | CLint scaled at 1 μM [2] | half-life at 1 μM [2] | CLint scaled at 1 μM [3] | half-life at 1 μM [3] | EC50 [4] | CLint scaled at 1 μM [5] | half-life at 1 μM [5] | CLint scaled at 1 μM [6] | half-life at 1 μM [6] | C0 ([7]; IV (1 mg/kg)) | clearance ([7]; IV (1 mg/kg)) | half-life ([7]; IV (1 mg/kg)) | CLint scaled at 1 μM [8] | half-life at 1 μM [8] | IC50 [9] | IC50 [10] | IC50 [11] | IC50 [12] | IC50 [13] | Structure (SMILES) | other results |
| --- | --- | --- | --- | --- | --- | --- | --- | --- | --- | --- | --- | --- | --- | --- | --- | --- | --- | --- | --- | --- | --- |
| < 0.01 µM | 949 mL/min/kg | 2 min | 78 mL/min/kg | 25.6 min | < 0.01 µM | 832 mL/min/kg | 3 min | 95.4 mL/min/kg | 13.1 min | 365 ng/mL | 56.8 mL/min/kg | 378 min | 180 mL/min/kg | 30.6 min | 2.6 µM | 5.2 µM | > 50 µM | > 50 µM | 1.7 µM | COC(=O)[C@]12CCC(C)(C)C[C@H]1[C@H]1C(=O)C=C3[C@@]4(C)C=C(C#N)C(=O)C(C)(C)[C@@H]4CC[C@@]3(C)[C@]1(C)CC2 [Control, reference compound] | AUC(0-t) ([7]; IV (1 mg/kg)): 291 ng·h/mL; Cmax ([7]; Oral (5 mg/kg)): 7 ng/mL; half-life ([7]; Oral (5 mg/kg)): 204 min; AUC(0-t) ([7]; Oral (5 mg/kg)): 26 ng·h/mL; bioavailability [7]: 1.8% |
| < 0.01 µM | 269 mL/min/kg | 7 min | 37 mL/min/kg | 54 min | < 0.01 µM | 42 mL/min/kg | 59.4 min | 168 mL/min/kg | 7.4 min | 349 ng/mL | 63.8 mL/min/kg | 102 min | 423 mL/min/kg | 13 min | 1 µM | 11.8 µM | 15 µM | > 50 µM | 2.7 µM | Cc1nnc([C@@]2(C)CC[C@]3(C)CC[C@]4(C)[C@H](C(=O)C=C5[C@@]6(C)C=C(C#N)C(=O)C(C)(C)[C@@H]6CC[C@]54C)[C@@H]3C2)o1 [Example 1, (4aR,6aS,6bR,8aS,11S,12aS,12bR,14bS)-4,4,6a,6b,8a,11,14b-heptamethyl-11-(5-methyl-1,3,4-oxadiazol-2-yl)-3,13-dioxo-3,4,4a,5,6,6a,6b,7,8,8a,9,10,11,12,12a,12b,13,14b-octadecahydropicene-2-carbonitrile] | AUC(0-t) ([7]; IV (1 mg/kg)): 258 ng·h/mL; Cmax ([7]; Oral (5 mg/kg)): 170 ng/mL; half-life ([7]; Oral (5 mg/kg)): 132 min; AUC(0-t) ([7]; Oral (5 mg/kg)): 1100 ng·h/mL; bioavailability [7]: 83.8% |
| – | 782 mL/min/kg | 2.4 min | 313 mL/min/kg | 6.4 min | < 0.01 µM | 157 mL/min/kg | 15.9 min | 397 mL/min/kg | 3.1 min | 500 ng/mL | 53 mL/min/kg | 72 min | 1750 mL/min/kg | 3.1 min | 1.7 µM | 25.4 µM | 20.2 µM | > 50 µM | 2.2 µM | CC1(C)C(=O)C(C#N)=C[C@]2(C)C3=CC(=O)[C@@H]4[C@@H]5C[C@@](C)(C#N)CC[C@]5(C)CC[C@@]4(C)[C@]3(C)CC[C@@H]12 [Example 2, (2S,4aS,6aR,6bS,8aR,12aS,14aR,14bS)-2,4a,6a,6b,9,9,12a-heptamethyl-10,14-dioxo-1,2,3,4,4a,5,6,6a,6b,7,8,8a,9,10,12a,14,14a,14b-octadecahydropicene-2,11-dicarbonitrile] | AUC(0-t) ([7]; IV (1 mg/kg)): 314 ng·h/mL; Cmax ([7]; Oral (5 mg/kg)): 177 ng/mL; half-life ([7]; Oral (5 mg/kg)): 78 min; AUC(0-t) ([7]; Oral (5 mg/kg)): 521 ng·h/mL; bioavailability [7]: 33.2% |
| < 0.01 µM | 156 mL/min/kg | 12 min | 81.6 mL/min/kg | 24.5 min | 0.01 to 0.1 µM | 50.3 mL/min/kg | 49.6 min | 50.7 mL/min/kg | 24.6 min | – | – | – | 150 mL/min/kg | 36.5 min | 6.7 µM | 17.8 µM | 4.7 µM | > 50 µM | 3.4 µM | CNC(=NC#N)NC[C@]12CCC(C)(C)C[C@H]1[C@H]1C(=O)C=C3[C@@]4(C)C=C(C#N)C(=O)C(C)(C)[C@@H]4CC[C@@]3(C)[C@]1(C)CC2 [Example 3, 2-cyano-1-(((4aS,6aR,6bS,8aR,12aS,14aR,14bS)-11-cyano-2,2,6a,6b,9,9,12a-heptamethyl-10,14-dioxo-1,3,4,5,6,6a,6b,7,8,8a,9,10,12a,14,14a,14b-hexadecahydropicen-4a(2H)-yl)methyl)-3-methylguanidine] | – |
| < 0.01 µM | – | – | – | – | 0.01 to 0.1 µM | – | – | – | – | – | – | – | – | – | – | – | – | – | – | C/S(CC(=O)N[C@]12CCC(C)(C)C[C@H]1[C@H]1C(=O)C=C3[C@@]4(C)C=C(C#N)C(=O)C(C)(C)[C@@H]4CC[C@@]3(C)[C@]1(C)CC2)=N\C#N (stereo partly drawn) [Example 5, N-((4aS,6aR,6bS,8aR,12aS,14aR,14bS)-11-cyano-2,2,6a,6b,9,9,12a-heptamethyl-10,14-dioxo-1,3,4,5,6,6a,6b,7,8,8a,9,10,12a,14,14a,14b-hexadecahydropicen-4a(2H)-yl)-2-((E)-N-cyano-S-methylsulfinimidoyl)acetamide] | – |
| < 0.01 µM | – | – | – | – | < 0.01 µM | – | – | – | – | – | – | – | – | – | 3.2 µM | 18.9 µM | > 50 µM | > 50 µM | 8.6 µM | CC1(C)C(=O)C(C#N)=C[C@]2(C)C3=CC(=O)[C@@H]4[C@@H]5C[C@@](C)(N6CCC(O)C6)CC[C@]5(C)CC[C@@]4(C)[C@]3(C)CC[C@@H]12 (stereo partly drawn) [Example 20, (4aR,6aS,6bR,8aS,11S,12aS,12bR,14bS)-11-(3-hydroxypyrrolidin-1-yl)-4,4,6a,6b,8a,11,14b-heptamethyl-3,13-dioxo-3,4,4a,5,6,6a,6b,7,8,8a,9,10,11,12,12a,12b,13,14b-octadecahydropicene-2-carbonitrile] | – |
